Experimental data published in ChEMBL document CHEMBL1221402, “Bioactivity-guided isolation of 1,2,3,4,6-Penta-O-galloyl-D-glucopyranose from Paeonia lactiflora roots as a PTP1B inhibitor” (J Nat Prod, 2010).
pIC50: −log10 of the molar value. The source made the active and inactive calls. The rule behind the calls is not given here.

Tests used:
[1] = biological target: Insulin receptor (Homo sapiens) (UniProt P06213); test: Induction of IR phosphorylation in insulin-stimulated starved human HCC-1.2 cells at 10 uM pretreated 2 hrs before insulin challenge by Western blot analysis
[2] = biological target: T1, Tyrosine-protein phosphatase non-receptor type 11 (Homo sapiens) (UniProt Q06124); test: Inhibition of SHP-2 at <50 uM
T1 sequence (whole entry): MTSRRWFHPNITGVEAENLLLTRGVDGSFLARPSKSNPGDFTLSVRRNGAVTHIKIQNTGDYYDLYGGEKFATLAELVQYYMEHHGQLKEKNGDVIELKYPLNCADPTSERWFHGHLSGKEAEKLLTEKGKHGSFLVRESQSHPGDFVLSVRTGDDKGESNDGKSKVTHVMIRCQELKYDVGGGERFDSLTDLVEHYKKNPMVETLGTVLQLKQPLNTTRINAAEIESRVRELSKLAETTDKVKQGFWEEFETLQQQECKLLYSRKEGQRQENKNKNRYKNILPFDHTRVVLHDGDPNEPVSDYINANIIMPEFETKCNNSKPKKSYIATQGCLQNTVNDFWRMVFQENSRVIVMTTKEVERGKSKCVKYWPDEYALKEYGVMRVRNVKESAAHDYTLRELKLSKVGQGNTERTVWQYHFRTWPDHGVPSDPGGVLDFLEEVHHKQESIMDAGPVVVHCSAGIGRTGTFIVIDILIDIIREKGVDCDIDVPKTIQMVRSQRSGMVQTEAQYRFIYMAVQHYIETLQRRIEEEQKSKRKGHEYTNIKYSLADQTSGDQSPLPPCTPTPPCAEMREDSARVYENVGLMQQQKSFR

[3] = biological target: T2, Tyrosine-protein phosphatase non-receptor type 1 (Homo sapiens, UniProt P18031); test: Inhibition of human recombinant PTP1B
T2 sequence (P18031 whole entry): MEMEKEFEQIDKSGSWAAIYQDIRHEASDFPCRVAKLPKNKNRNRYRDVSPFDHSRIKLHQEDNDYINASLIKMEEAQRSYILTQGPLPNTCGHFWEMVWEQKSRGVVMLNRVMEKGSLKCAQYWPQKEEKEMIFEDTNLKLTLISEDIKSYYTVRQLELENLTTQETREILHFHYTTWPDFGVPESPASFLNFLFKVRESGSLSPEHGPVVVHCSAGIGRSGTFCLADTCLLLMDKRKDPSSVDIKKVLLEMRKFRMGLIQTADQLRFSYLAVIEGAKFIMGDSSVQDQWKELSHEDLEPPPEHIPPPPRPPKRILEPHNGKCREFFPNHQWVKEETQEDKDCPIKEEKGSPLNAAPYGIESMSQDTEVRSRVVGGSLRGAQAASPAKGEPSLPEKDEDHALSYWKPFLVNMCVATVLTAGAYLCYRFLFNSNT

[4] = biological target: T3, Tyrosine-protein phosphatase non-receptor type 2 (Homo sapiens, UniProt P17706); test: Inhibition of TCPTP
T3 sequence (P17706 whole entry): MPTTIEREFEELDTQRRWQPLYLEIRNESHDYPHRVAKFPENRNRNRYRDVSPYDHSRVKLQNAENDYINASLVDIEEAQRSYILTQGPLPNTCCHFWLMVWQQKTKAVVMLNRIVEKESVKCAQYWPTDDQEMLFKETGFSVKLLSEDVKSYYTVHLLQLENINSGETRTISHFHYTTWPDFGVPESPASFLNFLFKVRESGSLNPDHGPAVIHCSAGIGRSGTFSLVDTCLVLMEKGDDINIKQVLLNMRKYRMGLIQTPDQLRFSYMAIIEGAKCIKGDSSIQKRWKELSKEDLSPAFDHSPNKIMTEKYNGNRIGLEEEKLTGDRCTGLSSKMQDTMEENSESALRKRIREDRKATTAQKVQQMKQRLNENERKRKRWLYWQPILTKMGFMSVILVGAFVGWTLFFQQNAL

[5] = biological target: Receptor-type tyrosine-protein phosphatase F (Homo sapiens) (UniProt P10586); test: Inhibition of LAR at <50 uM
Receptor-type tyrosine-protein phosphatase F (Homo sapiens), sequence (P10586 whole entry): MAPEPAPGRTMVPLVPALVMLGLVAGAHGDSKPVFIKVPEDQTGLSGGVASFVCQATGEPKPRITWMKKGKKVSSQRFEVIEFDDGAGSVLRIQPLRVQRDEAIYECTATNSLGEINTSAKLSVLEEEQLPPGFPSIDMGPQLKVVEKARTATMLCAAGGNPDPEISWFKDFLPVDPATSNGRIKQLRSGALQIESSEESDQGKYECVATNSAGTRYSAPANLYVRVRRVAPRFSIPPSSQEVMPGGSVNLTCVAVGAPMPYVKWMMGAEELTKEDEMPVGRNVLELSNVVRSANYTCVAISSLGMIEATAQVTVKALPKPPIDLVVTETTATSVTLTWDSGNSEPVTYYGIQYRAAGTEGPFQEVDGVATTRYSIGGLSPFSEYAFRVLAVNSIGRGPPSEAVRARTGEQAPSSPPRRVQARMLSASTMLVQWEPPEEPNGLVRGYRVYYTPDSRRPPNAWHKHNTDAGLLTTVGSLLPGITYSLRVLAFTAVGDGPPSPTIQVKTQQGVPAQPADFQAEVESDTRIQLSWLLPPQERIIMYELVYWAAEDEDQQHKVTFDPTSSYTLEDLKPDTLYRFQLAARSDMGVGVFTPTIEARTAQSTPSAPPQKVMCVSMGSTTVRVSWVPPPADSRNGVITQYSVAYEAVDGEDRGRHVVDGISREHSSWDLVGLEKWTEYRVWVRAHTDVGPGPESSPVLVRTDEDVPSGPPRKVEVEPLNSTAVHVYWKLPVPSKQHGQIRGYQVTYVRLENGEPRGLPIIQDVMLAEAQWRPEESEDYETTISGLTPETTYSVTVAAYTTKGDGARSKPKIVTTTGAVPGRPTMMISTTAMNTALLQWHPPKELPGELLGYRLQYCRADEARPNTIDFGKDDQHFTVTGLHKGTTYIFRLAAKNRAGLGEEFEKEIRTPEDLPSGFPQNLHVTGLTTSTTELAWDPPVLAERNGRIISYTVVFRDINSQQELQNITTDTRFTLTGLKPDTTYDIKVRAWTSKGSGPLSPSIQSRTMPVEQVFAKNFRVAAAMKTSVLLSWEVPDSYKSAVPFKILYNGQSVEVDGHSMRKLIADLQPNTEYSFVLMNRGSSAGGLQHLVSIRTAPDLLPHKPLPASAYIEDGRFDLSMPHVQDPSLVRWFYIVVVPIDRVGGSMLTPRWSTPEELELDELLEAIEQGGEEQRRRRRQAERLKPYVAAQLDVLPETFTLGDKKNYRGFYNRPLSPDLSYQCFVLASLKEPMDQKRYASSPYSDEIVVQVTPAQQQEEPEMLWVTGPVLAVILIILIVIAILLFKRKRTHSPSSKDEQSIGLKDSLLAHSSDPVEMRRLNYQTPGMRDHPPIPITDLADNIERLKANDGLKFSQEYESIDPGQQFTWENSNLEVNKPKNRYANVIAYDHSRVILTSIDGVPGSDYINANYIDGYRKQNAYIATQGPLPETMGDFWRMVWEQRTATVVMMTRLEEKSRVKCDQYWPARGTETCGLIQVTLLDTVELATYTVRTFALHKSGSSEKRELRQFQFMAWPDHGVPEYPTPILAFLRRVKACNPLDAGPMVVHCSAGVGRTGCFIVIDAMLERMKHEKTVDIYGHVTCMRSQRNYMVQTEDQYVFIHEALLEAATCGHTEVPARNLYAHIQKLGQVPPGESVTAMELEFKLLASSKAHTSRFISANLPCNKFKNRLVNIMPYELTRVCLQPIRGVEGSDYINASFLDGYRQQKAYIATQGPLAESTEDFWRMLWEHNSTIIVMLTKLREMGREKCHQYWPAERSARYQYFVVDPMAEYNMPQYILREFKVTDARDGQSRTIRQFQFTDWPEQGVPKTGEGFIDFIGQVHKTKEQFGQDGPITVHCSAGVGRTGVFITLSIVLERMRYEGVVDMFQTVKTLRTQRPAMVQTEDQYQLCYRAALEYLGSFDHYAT

Insulin receptor (Homo sapiens), sequence (P06213 28-758 limits assumed): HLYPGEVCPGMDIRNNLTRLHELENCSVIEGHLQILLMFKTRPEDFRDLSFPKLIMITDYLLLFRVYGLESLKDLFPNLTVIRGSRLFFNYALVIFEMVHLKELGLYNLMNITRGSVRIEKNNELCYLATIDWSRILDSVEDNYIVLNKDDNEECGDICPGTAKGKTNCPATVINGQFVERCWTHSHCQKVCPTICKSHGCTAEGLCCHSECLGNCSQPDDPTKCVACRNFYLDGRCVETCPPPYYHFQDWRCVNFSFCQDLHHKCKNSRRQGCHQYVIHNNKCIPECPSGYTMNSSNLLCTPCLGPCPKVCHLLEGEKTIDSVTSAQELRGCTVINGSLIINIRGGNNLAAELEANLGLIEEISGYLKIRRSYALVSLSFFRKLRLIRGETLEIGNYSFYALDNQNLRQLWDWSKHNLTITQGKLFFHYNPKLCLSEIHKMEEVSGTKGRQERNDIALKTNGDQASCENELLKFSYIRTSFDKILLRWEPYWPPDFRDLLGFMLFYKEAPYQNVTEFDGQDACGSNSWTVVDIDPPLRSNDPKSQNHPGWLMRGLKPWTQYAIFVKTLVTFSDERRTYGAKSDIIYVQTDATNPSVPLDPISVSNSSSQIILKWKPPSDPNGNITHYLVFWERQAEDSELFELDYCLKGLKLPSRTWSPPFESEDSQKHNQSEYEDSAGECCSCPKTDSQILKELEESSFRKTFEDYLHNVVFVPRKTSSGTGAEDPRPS
Insulin receptor (Homo sapiens), sequence (P06213 763-1382 limits assumed): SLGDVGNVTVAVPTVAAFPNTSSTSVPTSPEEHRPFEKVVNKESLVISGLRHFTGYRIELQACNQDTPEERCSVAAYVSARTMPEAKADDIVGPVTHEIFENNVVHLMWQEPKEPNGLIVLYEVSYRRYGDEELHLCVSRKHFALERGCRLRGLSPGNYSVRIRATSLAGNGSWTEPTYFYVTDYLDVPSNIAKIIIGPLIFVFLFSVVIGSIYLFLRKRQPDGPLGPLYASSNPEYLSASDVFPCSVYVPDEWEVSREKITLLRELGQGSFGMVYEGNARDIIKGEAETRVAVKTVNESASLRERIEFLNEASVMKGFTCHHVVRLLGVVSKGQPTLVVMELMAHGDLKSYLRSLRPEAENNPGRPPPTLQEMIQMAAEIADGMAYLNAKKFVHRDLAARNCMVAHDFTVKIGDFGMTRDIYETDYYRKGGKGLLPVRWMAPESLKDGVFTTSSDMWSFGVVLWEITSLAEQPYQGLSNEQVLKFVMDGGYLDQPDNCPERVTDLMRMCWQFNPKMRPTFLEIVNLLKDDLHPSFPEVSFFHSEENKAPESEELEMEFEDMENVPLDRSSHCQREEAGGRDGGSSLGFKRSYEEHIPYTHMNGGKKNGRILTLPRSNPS

What does the source list for O=C(OC[C@H]1O[C@H](OC(=O)c2cc(O)c(O)c(O)c2)[C@H](OC(=O)c2cc(O)c(O)c(O)c2)[C@@H](OC(=O)c2cc(O)c(O)c(O)c2)[C@@H]1OC(=O)c1cc(O)c(O)c(O)c1)c1cc(O)c(O)c(O)c1?
Activity [1]: Active; inhibition [2]: inactive; pIC50 [3]: 5.32; pIC50 [4]: 7.15; inhibition [5]: inactive
